Among the data in patent US8507478B2, “Oxazolidinyl antibiotics” (Actelion Pharmaceuticals Ltd., priority 2008, dated 2013) are MIC values, retold here.

Each structure is given as a SMILES string. Converted amounts (≈) assume the structure as drawn.

This assay has as its system M. catarrhalis A894. Kind of assay: MIC determination by microdilution in cation-adjusted Mueller-Hinton Broth. The class given is cell-based. The settings on record: Moraxella catarrhalis, microdilution method, CLSI M7-A7. As to the method: Minimal inhibitory concentrations (MICs; mg/l) were determined in cation-adjusted Mueller-Hinton Broth by a microdilution method following the description given in “Methods for Dilution Antimicrobial Susceptibility Tests for Bacteria that Grow Aerobically”, Approved standard, 7th ed., Clinical and Laboratory Standards Institute (CLSI) Document M7-A7, Wayne, Pa., USA, 2006. All Example compounds were tested against several Gram positive and Gram negative bacteria such as S. aureus, E. faecalis, S. pneumoniae, M catarrhalis, A. baumanii, E.coli or P. aeruginosa.
(In general: Dilution methods test growth across graded concentrations, often in twofold steps.)
For orientation: MIC means the smallest concentration in the dilution series that meets the test's criterion for growth inhibition. Low readings indicate greater potency, high ones weaker potency. As for `COc1ccc2ccc(=O)n(CC3(O)CCN(C[C@H]4CN(c5ccc6c(c5)NC(=O)CS6)C(=O)O4)C3)c2c1` (mixture of isomers) [Example 19, 6-{(S)-5-[(RS)-3-hydroxy-3-(7-methoxy-2-oxo-2H-quinolin-1-ylmethyl)pyrrolidin-1-ylmethyl]-2-oxo-oxazolidin-3-yl}-4H-benzo[1,4]thiazin-3-one], the MIC is no more than 0.031 µg/mL.

`COc1ccc2ncc(=O)n(CC3CN(CC[C@@H]4CN(c5ccc6c(c5)NC(=O)CS6)C(=O)O4)C3)c2c1` [Example 6, 6-((R)-5-{2-[3-(7-methoxy-2-oxo-2H-quinoxalin-1-ylmethyl)-azetidin-1-yl]-ethyl}-2-oxo-oxazolidin-3-yl)-4H-benzo[1,4]thiazin-3-one]: the MIC is no more than 0.031 µg/mL.

Compound `COc1ccc2ncc(=O)n(C3CCN(C[C@@H]4CN(c5ccc6c(c5)NC(=O)CO6)C(=O)O4)CC3)c2n1` [Example 16, 6-methoxy-4-{1-[(R)-2-oxo-3-(3-oxo-3,4-dihydro-2H-benzo[1,4]oxazin-6-yl)-oxazolidin-5-ylmethyl]-piperidin-4-yl}-4H-pyrido[2,3-b]pyrazin-3-one] had an MIC of no more than 0.031 µg/mL.

`COc1ccc2ccc(=O)n(CC3(O)CCN(C[C@@H]4CN(c5ccc6c(c5)NC(=O)CS6)C(=O)O4)C3)c2c1` (mixture of isomers) [Example 18, 6-{(R)-5-[(RS)-3-hydroxy-3-(7-methoxy-2-oxo-2H-quinolin-1-ylmethyl)pyrrolidin-1-ylmethyl]-2-oxo-oxazolidin-3-yl}-4H-benzo[1,4]thiazin-3-one] returned an MIC of no more than 0.031 µg/mL.

`COc1ccc2ccc(=O)n(CC3CN(CC[C@@H]4CN(c5ccc6c(c5)NC(=O)CS6)C(=O)O4)C3)c2c1` [Example 5, 6-((R)-5-{2-[3-(7-methoxy-2-oxo-2H-quinolin-1-ylmethyl)-azetidin-1-yl]-ethyl}-2-oxo-oxazolidin-3-yl)-4H-benzo[1,4]thiazin-3-one] yielded an MIC of no more than 0.031 µg/mL.

`COc1ccc2c(c1)N(CC1CN(C[C@H]3CN(c4ccc5c(c4)NC(=O)CS5)C(=O)O3)C1)C(=O)CC2` [Example 11, 6-{(S)-5-[3-(7-methoxy-2-oxo-3,4-dihydro-2H-quinolin-1-ylmethyl)azetidin-1-ylmethyl]-2-oxo-oxazolidin-3-yl}-4H-benzo[1,4]thiazin-3-one]: the MIC is no more than 0.031 µg/mL.

Regarding `COc1ccc2ncc(=O)n(CC3CN(C[C@@H]4CN(c5ccc6c(c5)OCCO6)C(=O)O4)C3)c2c1` [Example 14, 1-{1-[(R)-3-(2,3-dihydro-benzo[1,4]dioxin-6-yl)-2-oxo-oxazolidin-5-ylmethyl]-azetidin-3-ylmethyl}-7-methoxy-1H-quinoxalin-2-one], 0.25 µg/mL (≈ 0.522 µM) was the least that counted as inhibitory (MIC).

`COc1ccc2ccc(=O)n(CC3(O)CN(C[C@@H]4CN(c5ccc6c(c5)NC(=O)CS6)C(=O)O4)C3)c2c1` [Example 1, 6-{(R)-5-[3-hydroxy-3-(7-methoxy-2-oxo-2H-quinolin-1-ylmethyl)azetidin-1-ylmethyl]-2-oxo-oxazolidin-3-yl}-4H-benzo[1,4]thiazin-3-one] had an MIC of no more than 0.031 µg/mL.

The compound `COc1ccc2ccc(=O)n(CC3CCN(C[C@@H]4CN(c5ccc6c(c5)NC(=O)CS6)C(=O)O4)CC3)c2c1` [Example 7, 6-{(R)-5-[4-(7-methoxy-2-oxo-2H-quinolin-1-ylmethyl)-piperidin-1-ylmethyl]-2-oxo-oxazolidin-3-yl}-4H-benzo[1,4]thiazin-3-one] returned an MIC of no more than 0.031 µg/mL.

As for `COc1ccc2ncc(=O)n(C3CCN(C[C@@H]4CN(c5ccc6c(c5)OCCO6)C(=O)O4)CC3)c2n1` [Example 22, 4-{1-[(R)-3-(2,3-dihydro-benzo[1,4]dioxin-6-yl)-2-oxo-oxazolidin-5-ylmethyl]-piperidin-4-yl}-6-methoxy-4H-pyrido[2,3-b]pyrazin-3-one], the MIC was no more than 0.031 µg/mL.

As to `COc1ccc2ccc(=O)n(CC3(O)CCN(CC[C@@H]4CN(c5ccc6c(c5)NC(=O)CS6)C(=O)O4)C3)c2c1` (mixture of isomers) [Example 21, 6-((R)-5-{2-[(RS)-3-hydroxy-3-(7-methoxy-2-oxo-2H-quinolin-1-ylmethyl)-pyrrolidin-1-yl]-ethyl}-2-oxo-oxazolidin-3-yl)-4H-benzo[1,4]thiazin-3-one], the MIC was no more than 0.031 µg/mL.

In turn, `COc1ccc2ccc(=O)n(CC3(O)CCN(CC[C@H]4CN(c5ccc6c(c5)NC(=O)CS6)C(=O)O4)C3)c2c1` (mixture of isomers) [Example 20, 6-((S)-5-{2-[(RS)-3-hydroxy-3-(7-methoxy-2-oxo-2H-quinolin-1-ylmethyl)-pyrrolidin-1-yl]-ethyl}-2-oxo-oxazolidin-3-yl)-4H-benzo[1,4]thiazin-3-one] returned an MIC of no more than 0.031 µg/mL.

`COc1ccc2ccc(=O)n(C[C@@H]3CCN(C[C@@H]4CN(c5ccc6c(c5)NC(=O)CS6)C(=O)O4)C3)c2c1` [Example 17, 6-{(R)-5-[(R)-3-(7-methoxy-2-oxo-2H-quinolin-1-ylmethyl)-pyrrolidin-1-ylmethyl]-2-oxo-oxazolidin-3-yl}-4H-benzo[1,4]thiazin-3-one]: the minimal inhibitory concentration (MIC) was no more than 0.031 µg/mL.

Turning to `COc1ccc2ccc(=O)n(CC3CCN(C[C@@H]4CN(c5ccc6c(c5)OCCO6)C(=O)O4)CC3)c2c1` [Example 8, 1-{1-[(R)-3-(2,3-dihydro-benzo[1,4]dioxin-6-yl)-2-oxo-oxazolidin-5-ylmethyl]-piperidin-4-ylmethyl}-7-methoxy-1H-quinolin-2-one], inhibition of growth (MIC) required 1 µg/mL (≈ 1.98 µM).

Regarding `COc1ccc2ncc(=O)n(CC3CN(C[C@@H]4CN(c5ccc6c(c5)NC(=O)CS6)C(=O)O4)C3)c2c1` [Example 4, 6-{(R)-5-[3-(7-methoxy-2-oxo-2H-quinoxalin-1-ylmethyl)-azetidin-1-ylmethyl]-2-oxo-oxazolidin-3-yl}-4H-benzo[1,4]thiazin-3-one], the MIC is no more than 0.031 µg/mL.

`COc1ccc2ncc(=O)n(C3CCN(C[C@@H]4CN(c5ccc6c(c5)NC(=O)CS6)C(=O)O4)CC3)c2n1` [Example 15, 6-methoxy-4-[1-{(R)-2-oxo-3-(3-oxo-3,4-dihydro-2H-benzo[1,4]thiazin-6-yl)-oxazolidin-5-ylmethyl]-piperidin-4-yl}-4H-pyrido[2,3-b]pyrazin-3-one] displayed an MIC of no more than 0.031 µg/mL.

`COc1ccc2ncc(=O)n(C3CCN(CC[C@@H]4CN(c5ccc6c(c5)NC(=O)CS6)C(=O)O4)CC3)c2n1` [Example 25, 6-methoxy-4-(1-{2-[(R)-2-oxo-3-(3-oxo-3,4-dihydro-2H-benzo[1,4]thiazin-6-yl)-oxazolidin-5-yl]-ethyl}-piperidin-4-yl)-4H-pyrido[2,3-b]pyrazin-3-one] gave an MIC of no more than 0.031 µg/mL.

`COc1ccc2c(c1)N(CC1CN(C[C@@H]3CN(c4ccc5c(c4)NC(=O)CO5)C(=O)O3)C1)C(=O)CC2` [Example 12, 6-{(R)-5-[3-(7-methoxy-2-oxo-3,4-dihydro-2H-quinolin-1-ylmethyl)azetidin-1-ylmethyl]-2-oxo-oxazolidin-3-yl}-4H-benzo[1,4]oxazin-3-one] had a minimum inhibitory concentration (MIC) of 0.5 µg/mL (≈ 1.02 µM).

The compound `COc1ccc2ccc(=O)n(CC3CCN(C[C@@H]4CN(c5ccc(C)c(F)c5)C(=O)O4)CC3)c2c1` [Example 9, 1-{1-[(R)-3-(3-fluoro-4-methyl-phenyl)-2-oxo-oxazolidin-5-ylmethyl]-piperidin-4-ylmethyl}-7-methoxy-1H-quinolin-2-one] came in with an MIC of 1 µg/mL (≈ 2.09 µM).

On to `COc1ccc2ncc(=O)n(CC3CN(C[C@@H]4CN(c5ccc6c(c5)NC(=O)CO6)C(=O)O4)C3)c2c1` [Example 13, 6-{(R)-5-[3-(7-methoxy-2-oxo-2H-quinoxalin-1-ylmethyl)-azetidin-1-ylmethyl]-2-oxo-oxazolidin-3-yl}-4H-benzo[1,4]oxazin-3-one], for which the minimal inhibitory concentration (MIC) was no more than 0.031 µg/mL.

`COc1ccc2ccc(=O)n(CC3CN(C[C@@H]4CN(c5ccc6c(c5)OCCO6)C(=O)O4)C3)c2c1` [Example 3, 1-{1-[(R)-3-(2,3-dihydro-benzo[1,4]dioxin-6-yl)-2-oxo-oxazolidin-5-ylmethyl]-azetidin-3-ylmethyl}-7-methoxy-1H-quinolin-2-one] had an MIC of 0.063 µg/mL (≈ 0.132 µM).

In turn, `COc1ccc2ncc(=O)n(C3CCN(C[C@@H]4CN(c5ccc(C)c(F)c5)C(=O)O4)CC3)c2n1` [Example 24, 4-{1-[(R)-3-(3-fluoro-4-methyl-phenyl)-2-oxo-oxazolidin-5-ylmethyl]-piperidin-4-yl}-6-methoxy-4H-pyrido[2,3-b]pyrazin-3-one] showed an MIC of no more than 0.031 µg/mL.

Compound `COc1ccc2c(c1)N(CC1CN(C[C@@H]3CN(c4ccc5c(c4)NC(=O)CS5)C(=O)O3)C1)C(=O)CC2` [Example 10, 6-{(R)-5-[3-(7-methoxy-2-oxo-3,4-dihydro-2H-quinolin-1-ylmethyl)azetidin-1-ylmethyl]-2-oxo-oxazolidin-3-yl}-4H-benzo[1,4]thiazin-3-one] yielded a minimal inhibitory concentration (MIC) of no more than 0.031 µg/mL.

The compound `COc1ccc2ccc(=O)n(CC3CN(C[C@@H]4CN(c5ccc6c(c5)NC(=O)CS6)C(=O)O4)C3)c2c1` [Example 2, 6-{(R)-5-[3-(7-methoxy-2-oxo-2H-quinolin-1-ylmethyl)-azetidin-1-ylmethyl]-2-oxo-oxazolidin-3-yl}-4H-benzo[1,4]thiazin-3-one] gave an MIC of no more than 0.031 µg/mL.

The compound `COc1ccc2ncc(=O)n(C3CCN(CC[C@H]4CN(c5ccc6c(c5)NC(=O)CS6)C(=O)O4)CC3)c2n1` [Example 23, 6-methoxy-4-(1-{2-[(S)-2-oxo-3-(3-oxo-3,4-dihydro-2H-benzo[1,4]thiazin-6-yl)-oxazolidin-5-yl]-ethyl}-piperidin-4-yl)-4H-pyrido[2,3-b]pyrazin-3-one] had an MIC of no more than 0.031 µg/mL.
